Key:
[1] = biological target: T1, Recombinant STAT3 protein (STAT3 (G127-I722)) (Homo sapiens, UniProt P40763); assay: STAT3 Fluorescence Polarization (FP) Assay; format: binding; conditions: STAT3 25 nM, probe 5-FAM-GpYLPQTV-NH2 2 nM, 45-minute incubation; read-out: STAT3 (FP assay IC50)
T1 construct: Recombinant STAT3 protein (STAT3 (G127-I722))
In short: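 In this competition FP format, STAT3 residues G127-I722 (25 nM) and 2 nM 5-FAM-GpYLPQTV-NH2 met test compounds for 45 min at room temperature. IC50 values result from fitting mP signal against log concentration by nonlinear regression.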

[2] = biological target: T2, Recombinant STAT6 protein (STAT6 (W123-T658)) (Homo sapiens, UniProt P42226); assay: STAT6 Fluorescence Polarization (FP) Assay; format: binding; conditions: STAT6 250 nM, probe 5-FAM-Ap[…]-NH2 2 nM, 45-minute incubation; read-out: STAT6 (FP assay IC50)
T2 construct: Recombinant STAT6 protein (STAT6 (W123-T658))
T2 sequence (P42226 123-658): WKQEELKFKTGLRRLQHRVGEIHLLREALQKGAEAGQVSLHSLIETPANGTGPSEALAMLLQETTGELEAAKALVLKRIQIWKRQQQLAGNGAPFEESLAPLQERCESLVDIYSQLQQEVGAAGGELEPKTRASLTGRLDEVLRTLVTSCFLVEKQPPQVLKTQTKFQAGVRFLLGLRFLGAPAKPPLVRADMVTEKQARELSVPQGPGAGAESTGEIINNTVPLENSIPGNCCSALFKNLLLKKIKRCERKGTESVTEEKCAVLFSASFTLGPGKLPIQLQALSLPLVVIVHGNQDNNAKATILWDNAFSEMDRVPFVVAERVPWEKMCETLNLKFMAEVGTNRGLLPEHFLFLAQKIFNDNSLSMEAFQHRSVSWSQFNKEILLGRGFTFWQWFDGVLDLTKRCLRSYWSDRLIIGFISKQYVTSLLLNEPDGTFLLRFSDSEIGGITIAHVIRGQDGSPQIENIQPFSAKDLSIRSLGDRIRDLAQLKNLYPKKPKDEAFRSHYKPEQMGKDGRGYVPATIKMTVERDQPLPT
In short: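 Displacement of a fluorescent phosphotyrosine peptide (2 nM) from 250 nM STAT6 (W123-T658) is measured by polarization after a 45-minute room-temperature incubation. Compounds are titrated serially at 1% DMSO, and IC50 values derive from regression of mP on log concentration.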

T1 sequence (P40763 127-722): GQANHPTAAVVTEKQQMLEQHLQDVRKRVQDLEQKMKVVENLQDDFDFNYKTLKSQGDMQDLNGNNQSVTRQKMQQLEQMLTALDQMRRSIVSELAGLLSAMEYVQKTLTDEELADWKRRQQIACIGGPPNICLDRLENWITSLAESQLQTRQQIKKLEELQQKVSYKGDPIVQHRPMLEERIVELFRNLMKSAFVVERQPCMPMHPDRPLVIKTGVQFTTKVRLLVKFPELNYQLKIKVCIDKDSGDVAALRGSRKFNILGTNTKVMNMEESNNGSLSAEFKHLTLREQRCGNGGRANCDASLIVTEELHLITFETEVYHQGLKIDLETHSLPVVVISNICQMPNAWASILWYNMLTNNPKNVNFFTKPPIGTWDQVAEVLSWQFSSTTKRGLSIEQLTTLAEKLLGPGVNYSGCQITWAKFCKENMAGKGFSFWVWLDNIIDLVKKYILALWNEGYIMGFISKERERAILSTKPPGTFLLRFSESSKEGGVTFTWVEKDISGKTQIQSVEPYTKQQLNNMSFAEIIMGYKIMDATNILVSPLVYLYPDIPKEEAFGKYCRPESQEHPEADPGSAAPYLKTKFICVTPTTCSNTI

Row | IC50 [1] [nM] | IC50 [2] [nM] | Structure (SMILES)
1 | 1000 to 10000 | 300 to 3000 | N#Cc1[nH]nc2ccc(NC(=O)[C@@H]3CC[C@@H]4CCCC[C@H](NC(=O)c5cc6cc(C(F)(F)P(=O)(O)O)ccc6s5)C(=O)N43)cc12 [Compound 52, ((2-(((3S,6S,10aS)-3-((3-cyano-2H-indazol-5-yl)carbamoyl)-5-oxodecahydropyrrolo [1,2-a]azocin-6-yl)carbamoyl)benzo[b]thiophen-5-yl)difluoromethyl) phosphonic acid]
2 | < 100 | 300 to 3000 | O=C(N[C@H]1CCCC[C@H]2CC[C@@H](C(=O)N3CC(F)(c4ccccc4)C3)N2C1=O)c1cc2cc(C(F)(F)P(=O)(O)O)ccc2s1 [Compound 53, (difluoro(2-(((3S,6S,10aS)-3-(3-fluoro-3-phenylazetidine-1-carbonyl)-5-oxodecahydropyrrolo [1,2-a]azocin-6-yl)carbamoyl)benzo[b]thiophen-5-yl)methyl) phosphonic acid]
3 | < 100 | 300 to 3000 | O=C(N[C@H]1CCCC[C@H]2CC[C@@H](C(=O)N3CC(F)(c4ccccc4F)C3)N2C1=O)c1cc2cc(C(F)(F)P(=O)(O)O)ccc2s1 [Compound 54, (difluoro(2-(((3S,6S,10aS)-3-(3-fluoro-3-(2-fluorophenyl)azetidine-1-carbonyl)-5-oxodecahydropyrrolo [1,2-a]azocin-6-yl)carbamoyl)benzo[b]thiophen-5-yl)methyl) phosphonic acid]
4 | 100 to 1000 | 300 to 3000 | O=C(N[C@H]1CCCC[C@H]2CC[C@@H](C(=O)Nc3ccc4nccc(Cl)c4c3)N2C1=O)c1cc2cc(C(F)(F)P(=O)(O)O)ccc2s1 [Compound 55, ((2-(((3S,6S,10aS)-3-((4-chloroquinolin-6-yl)carbamoyl)-5-oxodecahydropyrrolo [1,2-a]azocin-6-yl)carbamoyl)benzo[b]thiophen-5-yl)difluoromethyl) phosphonic acid]
5 | 100 to 1000 | 3000 to 30000 | CC(C)(O)c1cn(C2CN(C(=O)[C@@H]3CC[C@@H]4CCCC[C@H](NC(=O)c5cc6cc(C(F)(F)P(=O)(O)O)ccc6s5)C(=O)N43)C2)nn1 [Compound 56, (difluoro(2-(((3S,6S,10aS)-3-(3-(4-(2-hydroxypropan-2-yl)-1H-1,2,3-triazol-1-yl)azetidine-1-carbonyl)-5-oxodecahydropyrrolo [1,2-a]azocin-6-yl)carbamoyl)benzo[b]thiophen-5-yl)methyl) phosphonic acid]
6 | 100 to 1000 | 300 to 3000 | O=C(N[C@H]1CCCC[C@H]2CC[C@@H](C(=O)Nc3ccc4c(c3)CCS4(=O)=O)N2C1=O)c1cc2cc(C(F)(F)P(=O)(O)O)ccc2s1 [Compound 57, ((2-(((3S,6S,10aS)-3-((1,1-dioxido-2,3-dihydrobenzo[b]thiophen-5-yl)carbamoyl)-5-oxodecahydropyrrolo [1,2-a]azocin-6-yl)carbamoyl)benzo[b]thiophen-5-yl)difluoromethyl) phosphonic acid]
7 | 100 to 1000 | 300 to 3000 | O=C(N[C@H]1CCCC[C@H]2CC[C@@H](C(=O)Nc3ccc4c(c3)CCCS4(=O)=O)N2C1=O)c1cc2cc(C(F)(F)P(=O)(O)O)ccc2s1 [Compound 58, ((2-(((3S,6S,10aS)-3-((1,1-dioxidothio-chroman-6-yl)carbamoyl)-5-oxodecahydropyrrolo [1,2-a]azocin-6-yl)carbamoyl)benzo[b]thiophen-5-yl)difluoro-methyl)phosphonic acid]
8 | 100 to 1000 | 300 to 3000 | Cc1[nH]nc2ccc(NC(=O)[C@@H]3CC[C@@H]4CCCC[C@H](NC(=O)c5cc6cc(C(F)(F)P(=O)(O)O)ccc6s5)C(=O)N43)cc12 [Compound 59, (difluoro(2-(((3S,6S,10aS)-3-((3-methyl-2H-indazol-5-yl)carbamoyl)-5-oxodecahydro-pyrrolo[1,2-a]azocin-6-yl)carbamoyl)benzo[b]thiophen-5-yl)methyl) phosphonic acid]
9 | < 100 | 3000 to 30000 | O=C(N[C@H]1CCC[C@H]2CCC[C@@H](C(=O)N3CC(n4ccnc4)C3)N2C1=O)c1cc2cc(C(F)(F)P(=O)(O)O)ccc2s1 [Compound 60, ((2-(((4S,7S,10aS)-4-(3-(1H-imidazol-1-yl)azetidine-1-carbonyl)-6-oxodecahydropyrido [1,2-a]azepin-7-yl)carbamoyl)benzo[b]thiophen-5-yl)difluoromethyl) phosphonic acid]
10 | 100 to 1000 | 300 to 3000 | N=S1(=O)CCC(C2CN(C(=O)[C@@H]3CC[C@@H]4CCCC[C@H](NC(=O)c5cc6cc(C(F)(F)P(=O)(O)O)ccc6s5)C(=O)N43)C2)CC1 (stereo partly drawn) [Compound 61, (difluoro(2-(((3S,6S,10aS)-3-(3-(1-imino-1-oxidohexahydro-1l6-thiopyran-4-yl)azetidine-1-carbonyl)-5-oxodecahydropyrrolo [1,2-a]azocin-6-yl)carbamoyl)benzo[b]thiophen-5-yl)methyl) phosphonic acid]
11 | > 10000 | > 30000 | O=C(N[C@H]1CCCC[C@H]2CCC[C@@H](C(=O)N3CC(n4ccnc4)C3)N2C1=O)c1cc2cc(C(F)(F)P(=O)(O)O)ccc2s1 [Compound 62, ((2-(((4S,7S,11aS)-4-(3-(1H-imidazol-1-yl)azetidine-1-carbonyl)-6-oxodecahydro-2H-pyrido[1,2-a]azocin-7-yl)carbamoyl)benzo[b]thiophen-5-yl)difluoromethyl) phosphonic acid]
12 | < 100 | 300 to 3000 | C#Cc1ncoc1C1CN(C(=O)[C@@H]2CC[C@@H]3CCCC[C@H](NC(=O)c4cc5cc(C(F)(F)P(=O)(O)O)ccc5s4)C(=O)N32)C1 [Compound 64, ((2-(((3S,6S,10aS)-3-(3-(4-ethynyloxazol-5-yl)azetidine-1-carbonyl)-5-oxodecahydropyrrolo [1,2-a]azocin-6-yl)carbamoyl)benzo[b]thiophen-5-yl)difluoromethyl) phosphonic acid]
13 | 100 to 1000 | 300 to 3000 | Cn1ccc(C2CN(C(=O)[C@@H]3CC[C@@H]4CCCC[C@H](NC(=O)c5cc6cc(C(F)(F)P(=O)(O)O)ccc6s5)C(=O)N43)C2)n1 [Compound 65, (difluoro(2-(((3S,6S,10S)-3-(3-(1-methyl-1H-pyrazol-3-yl)azetidine-1-carbonyl)-5-oxodecahydropyrrolo [1,2-a]azocin-6-yl)carbamoyl)benzo[b]thiophen-5-yl)methyl) phosphonic acid]
14 | < 100 | 3000 to 30000 | CS(=N)(=O)CC1CN(C(=O)[C@@H]2CC[C@@H]3CCCC[C@H](NC(=O)c4cc5cc(C(F)(F)P(=O)(O)O)ccc5s4)C(=O)N32)C1 (stereo partly drawn) [Compound 66, (difluoro(2-(((3S,6S,10aS)-3-(3-((S-methyl-sulfonimidoyl)methyl)azetidine-1-carbonyl)-5-oxodecahydropyrrolo [1,2-a]azocin-6-yl)carbamoyl)benzo[b]thiophen-5-yl)methyl) phosphonic acid]
15 | < 100 | 300 to 3000 | O=C(N[C@H]1CCCC[C@H]2CC[C@@H](C(=O)N3CC(c4c[nH]cn4)C3)N2C1=O)c1cc2cc(C(F)(F)P(=O)(O)O)ccc2s1 [Compound 67, ((2-(((3S,6S,10aS)-3-(3-(1H-imidazol-4-yl)azetidine-1-carbonyl)-5-oxodecahydro-pyrrolo[1,2-a]azocin-6-yl)carbamoyl)benzo[b]thiophen-5-yl)difluoromethyl) phosphonic acid]
16 | 100 to 1000 | 3000 to 30000 | Cc1cnn(C2CN(C(=O)[C@@H]3CC[C@@H]4CCCC[C@H](NC(=O)c5cc6cc(C(F)(F)P(=O)(O)O)ccc6s5)C(=O)N43)C2)c1 [Compound 68, (difluoro(2-(((3S,6S,10aS)-3-(3-(4-methyl-1H-pyrazol-1-yl)azetidine-1-carbonyl)-5-oxodecahydropyrrolo [1,2-a]azocin-6-yl)carbamoyl)benzo[b]thiophen-5-yl)methyl) phosphonic acid]
17 | 100 to 1000 | 300 to 3000 | Cn1nccc1C=C1CN(C(=O)[C@@H]2CC[C@@H]3CCCC[C@H](NC(=O)c4cc5cc(C(F)(F)P(=O)(O)O)ccc5s4)C(=O)N32)C1 [Compound 69, (difluoro(2-(((3S,6S,10aS)-3-(3-((1-methyl-1H-pyrazol-5-yl)methylene)azetidine-1-carbonyl)-5-oxodecahydropyrrolo [1,2-a]azocin-6-yl)carbamoyl)benzo[b]thiophen-5-yl)methyl) phosphonic acid]

Source: patent publication US20250215029A1 (Recludix Pharma, Inc., priority 2022, published 2025)
